Experiments:
[1] = In vitro metal competition study; assay type: physicochemical; settings: PBS pH 7.4, 37 C
Method: In vitro Metal Competition study. To a solution of metal cations [iron (III) chloride, cobalt (II) chloride, zinc (II) chloride, copper (II) chloride, magnesium (II) chloride, gallium (III) nitrate, gadolinium (III) chloride] (1 mM, 200 µL), was added 89Zr-labeled complex (0.1 mM, 10 µL, 80 μCi, 2.96 MBq) in PBS, pH 7.4. The resulting solutions (n = 3) were incubated at 37 °C for 7 days in a thermomixer. Dissociation of 89Zr from 89Zr-complexes was monitored by radio-TLC at 2 h, 1 d, 4 d and 7 d time point. All studies were performed in triplicate.

[2] = In vitro EDTA challenge study; assay type: physicochemical
Method: In vitro EDTA challenge study. In vitro EDTA challenge study was carried out by adding 10 µL of each 89Zr-labeled complex (70 μCi, 2.59 MBq) to 500 µL of EDTA (10 mM, 50 mM and 100 mM: pH 5 and pH 7) with a 1:100, 1:500, and 1:1000 ratio of ligand/EDTA. The solutions (n=4) were incubated at 37 °C for 7 days in a thermomixer. Samples were analyzed at 30 min, 1 h, 3 h, 6 h, 1 d, 3 d, 5 d and 7 d post administration to EDTA by radio-TLC using Varian ITLC-SA strips and 0.1 M EDTA (pH 5) as the mobile phase and gamma counting using an energy window of 500-1500 keV and standard protocols .

[3] = In vitro serum stability (radio-ITLC); assay type: in vitro ADME; settings: 37 C, after 7 days
Method: In vitro serum stability. In vitro serum stability was carried out by adding 10 µL of each 89Zr-labeled complex (70 μCi, 2.59 MBq) to 500 µL of human serum. The solutions (n=4) were incubated at 37 °C for 7 days and were analyzed daily for 1 week by radio -TLC using Varian ITLC-SA strips and 0.1 M EDTA (pH 5) as the mobile phase and gamma counting using an energy window of 500-1500 keV and standard protocols . Serum samples were also analyzed after 7 days by size exclusion chromatography (SEC) using a Superdex 200 10/300 GLTM column (GE Healthcare Life Sciences, Piscataway, NJ) and phosphate buffered saline (PBS) as eluent with a flow rate of 0.5 mL/min.
Figure S30. Radio-ITLC of 89Zr-DOTA solution in human serum at 37 °C after 0 h (a) and 7 days (b). […]

Biodistribution studies = assay type: in vivo, female NIH Swiss mice; settings: mice, intravenous, 72 h post-injection
Method: Biodistribution Studies. Biodistribution studies were conducted using a modified literature procedure. 7 Briefly, female NIH Swiss mice (6-8 wk old, n=6) were injected with each 89Zr-labeled complex (0.55 MBq (15 μCi)/mouse) via the tail vein, and sacrificed at 2, 4, 24, 48, 72 h post-injection. Organs and tissues of interest were excised, weighted, and counted on a Perkin Elmer 2480 Wizard® gamma counter (Waltham, MA). The percent injected dose per gram (%ID/g) and percent injected dose per organ (%ID/organ) were calculated by comparison to a weighed, counted standard for each group (Tables S9 – S12).
Statistical Methods. All of the data are presented as mean±SD or mean (95% Confidence Interval). For statistical classification a student’s t test (two-tailed, unpaired) was performed using GraphPad Prism (San Diego, CA). Any p<0.05 was considered significant.

SMILES: O=P1(O)CN2CCN3CCN4CCN(CC2)CP(=O)(O)[O][89Zr]([O]1)([O]P(=O)(O)C3)[O]P(=O)(O)C4 [89Zr-DOTP]
- % Intact of 89Zr-complexes ([1]; Co2+, 2 h): 99.1 ± 0.2%
- % Intact of 89Zr-complexes ([1]; Co2+, 1 d): 97.2 ± 0.1%
- % Intact of 89Zr-complexes ([1]; Co2+, 4 d): 95.3 ± 0.5%
- % Intact of 89Zr-complexes ([1]; Co2+, 7 d): 93.5 ± 1.3%
- % Intact of 89Zr-complexes ([1]; Cu2+, 2 h): 98.4 ± 0.1%
- % Intact of 89Zr-complexes ([1]; Cu2+, 1 d): 95.4 ± 0.2%
- % Intact of 89Zr-complexes ([1]; Cu2+, 4 d): 97.5 ± 0.7%
- % Intact of 89Zr-complexes ([1]; Cu2+, 7 d): 94.4 ± 1.3%
- % Intact of 89Zr-complexes ([1]; Fe3+, 2 h): 99.3 ± 0.1%
- % Intact of 89Zr-complexes ([1]; Fe3+, 1 d): 96.8 ± 1.2%
- % Intact of 89Zr-complexes ([1]; Fe3+, 4 d): 89.5 ± 0.7%
- % Intact of 89Zr-complexes ([1]; Fe3+, 7 d): 84.0 ± 0.4%
- % Intact of 89Zr-complexes ([1]; Ga3+, 2 h): 99.2 ± 0.1%
- % Intact of 89Zr-complexes ([1]; Ga3+, 1 d): 98.2 ± 0.2%
- % Intact of 89Zr-complexes ([1]; Ga3+, 4 d): 93.6 ± 0.6%
- % Intact of 89Zr-complexes ([1]; Ga3+, 7 d): 91.1 ± 1.4%
- % Intact of 89Zr-complexes ([1]; Gd3+, 2 h): 99.5 ± 0.4%
- % Intact of 89Zr-complexes ([1]; Gd3+, 1 d): 97.9 ± 0.4%
- % Intact of 89Zr-complexes ([1]; Gd3+, 4 d): 93.2 ± 1.0%
- % Intact of 89Zr-complexes ([1]; Gd3+, 7 d): 91.7 ± 2.0%
- % Intact of 89Zr-complexes ([1]; Mg2+, 2 h): 99.2 ± 0.2%
- % Intact of 89Zr-complexes ([1]; Mg2+, 1 d): 99.4 ± 0.1%
- % Intact of 89Zr-complexes ([1]; Mg2+, 4 d): 98.1 ± 0.1%
- % Intact of 89Zr-complexes ([1]; Mg2+, 7 d): 96.3 ± 0.4%
- % Intact of 89Zr-complexes ([1]; Zn2+, 2 h): 99.0 ± 0.1%
- % Intact of 89Zr-complexes ([1]; Zn2+, 1 d): 95.4 ± 0.3%
- % Intact of 89Zr-complexes ([1]; Zn2+, 4 d): 89.4 ± 1.5%
- % Intact of 89Zr-complexes ([1]; Zn2+, 7 d): 84.7 ± 2.7%
- % Intact of 89Zr-complexes ([2]; EDTA 100-fold, pH 5.0, 37 C, 1 h): 98.6 ± 0.3%
- % Intact of 89Zr-complexes ([2]; EDTA 100-fold, pH 5.0, 37 C, 1 d): 91.8 ± 0.9%
- % Intact of 89Zr-complexes ([2]; EDTA 100-fold, pH 5.0, 37 C, 3 d): 84.3 ± 0.7%
- % Intact of 89Zr-complexes ([2]; EDTA 100-fold, pH 5.0, 37 C, 5 d): 78.6 ± 1.0%
- % Intact of 89Zr-complexes ([2]; EDTA 100-fold, pH 5.0, 37 C, 7 d): 56.5 ± 1.4%
- % Intact of 89Zr-complexes ([2]; EDTA 100-fold, pH 7.0, 37 C, 1 h): 99.8 ± 0.1%
- % Intact of 89Zr-complexes ([2]; EDTA 100-fold, pH 7.0, 37 C, 1 d): 98.6 ± 0.1%
- % Intact of 89Zr-complexes ([2]; EDTA 100-fold, pH 7.0, 37 C, 3 d): 96.8 ± 0.3%
- % Intact of 89Zr-complexes ([2]; EDTA 100-fold, pH 7.0, 37 C, 5 d): 94.5 ± 0.5%
- % Intact of 89Zr-complexes ([2]; EDTA 100-fold, pH 7.0, 37 C, 7 d): 92.5 ± 0.4%
- % Intact of 89Zr-complexes ([2]; EDTA 500-fold, pH 5.0, 37 C, 1 h): 97.4 ± 0.4%
- % Intact of 89Zr-complexes ([2]; EDTA 500-fold, pH 5.0, 37 C, 1 d): 89.4 ± 0.7%
- % Intact of 89Zr-complexes ([2]; EDTA 500-fold, pH 5.0, 37 C, 3 d): 72.4 ± 1.4%
- % Intact of 89Zr-complexes ([2]; EDTA 500-fold, pH 5.0, 37 C, 5 d): 66.7 ± 0.7%
- % Intact of 89Zr-complexes ([2]; EDTA 500-fold, pH 5.0, 37 C, 7 d): 53.8 ± 0.8%
- % Intact of 89Zr-complexes ([2]; EDTA 500-fold, pH 7.0, 37 C, 1 h): 99.5 ± 0.3%
- % Intact of 89Zr-complexes ([2]; EDTA 500-fold, pH 7.0, 37 C, 1 d): 98.2 ± 0.1%
- % Intact of 89Zr-complexes ([2]; EDTA 500-fold, pH 7.0, 37 C, 3 d): 94.9 ± 1.1%
- % Intact of 89Zr-complexes ([2]; EDTA 500-fold, pH 7.0, 37 C, 5 d): 91.4 ± 0.3%
- % Intact of 89Zr-complexes ([2]; EDTA 500-fold, pH 7.0, 37 C, 7 d): 89.3 ± 0.6%
- % Intact of 89Zr-complexes ([2]; EDTA 1000-fold, pH 5.0, 37 C, 1 h): 96.3 ± 0.5%
- % Intact of 89Zr-complexes ([2]; EDTA 1000-fold, pH 5.0, 37 C, 1 d): 87.3 ± 1.2%
- % Intact of 89Zr-complexes ([2]; EDTA 1000-fold, pH 5.0, 37 C, 3 d): 67.5 ± 1.1%
- % Intact of 89Zr-complexes ([2]; EDTA 1000-fold, pH 5.0, 37 C, 5 d): 58.9 ± 1.4%
- % Intact of 89Zr-complexes ([2]; EDTA 1000-fold, pH 5.0, 37 C, 7 d): 43.7 ± 1.1%
- % Intact of 89Zr-complexes ([2]; EDTA 1000-fold, pH 7.0, 37 C, 1 h): 99.2 ± 0.1%
- % Intact of 89Zr-complexes ([2]; EDTA 1000-fold, pH 7.0, 37 C, 1 d): 97.9 ± 0.1%
- % Intact of 89Zr-complexes ([2]; EDTA 1000-fold, pH 7.0, 37 C, 3 d): 91.5 ± 0.6%
- % Intact of 89Zr-complexes ([2]; EDTA 1000-fold, pH 7.0, 37 C, 5 d): 84.9 ± 0.6%
- % Intact of 89Zr-complexes ([2]; EDTA 1000-fold, pH 7.0, 37 C, 7 d): 79.4 ± 1.2%
- Radio-ITLC peak of complex in human serum [3]: 95.2%
- Radioactivity in blood (Biodistribution studies): 0.0005 ± 0.001 % ID per g
- Radioactivity in bone (Biodistribution studies): 2.63 ± 0.12 % ID per g
- Radioactivity in kidney (Biodistribution studies): 0.32 ± 0.045 % ID per g
- Radioactivity in liver (Biodistribution studies): 0.036 ± 0.002 % ID per g
